Source: publication PMC11437215 (Nature Communications, 2024)

Experiments:
[1] = tested on: CD4+ T cells in SLOs; assay: Quantification of tetramer-binding CD4+ T cells in SLOs; type: cell-based; settings: SLOs of 6–8-week-old female NOD mice
[2] = tested on: I-A^g7; settings: Q-to-E conversion; cited from earlier work
[3] = tested on: 9B9 (G20-specific) and IIT-3 (E21-specific) CD4+ T cell hybridomas; type: cell-based, mouse; settings: C3.g7 APC pulsed with antigen; IL-2 (Supplementary Fig. 1a, b)
[4] = tested on: popliteal lymph node T cells (IFNγ, IL-2); assay: ELISPOT recall after peptide immunization; settings: immunized with B:9–23 (Fig. 7c)
[5] = tested on: tetramer-binding CD4+ T cells; assay: Flow cytometry of anergy markers CD73 and FR4 in tetramer-binding CD4+ T cells; type: cell-based, NOD and NOD.Ins2−/− mice; settings: SLOs (Supplementary Fig. 9a)
[6] = tested on: tetramer-binding CD4+ T cells; assay: Flow cytometry of FOXP3 and CD44 in tetramer-binding CD4+ T cells; type: cell-based, NOD and NOD.Ins2−/− mice; settings: NOD mice (Fig. 6b)
[7] = tested on: CD4+ T cell clones BDC2.5 and BDC6.9; settings: cited from earlier work
[8] = tested on: autoimmune diabetes in female NOD mice; assay: Diabetes development; settings: chloroquine group, all PBS-treated mice became diabetic
[9] = tested on: crinosome subcellular fraction of β cells; assay: Crinosome peptidome by mass spectrometry; set-up: species or system NOD mice
[10] = tested on: crinosomes in pancreatic β cells; assay: Electron microscopy count of crinophagic granules; type: in vivo, NOD mice
[11] = tested on: insulin epitopes G20 and E21 in crinosome and DCG subcellular fractions; assay: Granule-based antigen presentation assay: crinosome; type: cell-based, NOD mice; settings: chloroquine vs PBS
[12] = tested on: 9B9 T cell (G20-specific); assay: Presentation of G20 by dispersed islet cells; settings: chloroquine vs PBS; B:9–23 10 µM
[13] = tested on: 9B9 T cell (G20-specific); assay: Presentation of G20 by blood leukocytes after glucose challenge; type: cell-based, NOD mice
[14] = tested on: type 1 diabetes progression; settings: autoantibody-positive (stage 1) T1D patients; cited from earlier work
[15] = tested on: 9B9, IIT-3, CP1- and CP2-specific CD4+ T cell hybridomas; type: cell-based, NOD and NOD.B16A mice; settings: 8 to 10-week-old female NOD mice
[16] = tested on: 9B9, IIT-3, CP1- and CP2-specific CD4+ T cell hybridomas; type: cell-based, NOD and NOD.B16A mice; settings: mTECs from NOD or NOD.B16A mice

## TQSPLLKRQLTSFIEKGQE [DBP]
[1]
  tetramer-binding cells per million CD4+ T cells: less than 5 per million CD4^+ T cells

## GDLQTLALEVARE [CP1d]
[2]
  binding affinity to I-A^g7 relative to native CP1: enhanced the binding affinity

## TEGEALYLVCGEGGS [Syn-E21]
[3]
  responses of the 9B9 (G20-specific) and IIT-3 (E21-specific) hybridomas: exclusively reacted to their corresponding epitopes
[4]
  T cell responses upon recall in NOD.Ins2−/− mice: significantly enhanced
  T cell responses upon recall in WT NOD mice: minimal

## VEALYLVCG [G20]
[5]
  expression of CD73 and FR4 in the FOXP3−CD44hi subset of tetramer-binding T cells: much less expression of CD73 and FR4
[6]
  FOXP3 phenotype of tetramer-binding CD4+ single-positive thymocytes: mostly FOXP3^− conventional T cells

## LQTLAL-WSRMD [2.5HIP]
[5]
  expression of CD73 and FR4 in the FOXP3−CD44hi subset of tetramer-binding T cells: much less expression of CD73 and FR4
[7]
  agonist activity on CD4+ T cell clones BDC2.5 and BDC6.9: strong agonists

## CCN(CC)CCCC(C)Nc1ccnc2cc(Cl)ccc12 (centres unmarked) [Chloroquine, chloroquine]
[8]
  mice remaining diabetes free by 35 weeks of age: about 33%
[9]; chloroquine vs PBS
  overall HIP abundance in crinosomes: significant decrease
  relative abundance of deamidated insulin C-peptides in the crinosome peptidome: significant reduction
[9]; chloroquine vs PBS, 1.2 × 10^6 β cells per condition
  number of peptides in the crinosome peptidome: significant reduction
[9]; mice given chloroquine, ten HIPs in PBS control
  HIPs identified in crinosomes: only one HIP
[9]; peptide-spectra matches, chloroquine vs PBS
  PTMs in the crinosome peptidome (methionine oxidation, deamidation, dehydration, phosphorylation, formylation): reduced
[10]; male and female NOD mice, short-term chloroquine vs PBS
  change of crinosome-like vesicles in β cells: reduced by half
[10]; young NOD mice (discussion summary)
  diminishing of crinophagic granules and associated peptide production: about 50%
[11]
  effect on presentation of both epitopes in DCGs: did not influence
[11]; male and female NOD mice
  reduction in the presentation level of both G20 and E21 in the crinosome fraction: ~ 50%
[12]
  G20 presentation by dispersed islet cells pulsed with exogenous B:9–23 peptide: no difference
[13]; chloroquine vs PBS, B:9–23 10 µM
  presentation of G20 by blood leukocytes during pulse with exogenous B:9–23: without affecting
[13]; preliminary experiments
  duration of the effect in inhibiting G20 presentation: about three days

## LQTLAL-NAARD [6.9HIP]
[5]
  expression of CD73 and FR4 in the FOXP3−CD44hi subset of tetramer-binding T cells: much less expression of CD73 and FR4
[7]
  agonist activity on CD4+ T cell clones BDC2.5 and BDC6.9: strong agonists

## EALYLVCGE [E21]
[5]
  expression of CD73 and FR4 in the FOXP3−CD44hi subset of tetramer-binding T cells: high expression of both CD73 and FR4
[6]
  FOXP3 phenotype of tetramer-binding CD4+ single-positive thymocytes: majority

## CCN(CCO)CCCC(C)Nc1ccnc2cc(Cl)ccc12 (centres unmarked) [hydroxychloroquine]
[14]
  autoantibody acquisition and titers of anti-insulin and anti-GAD antibodies: reduced
  progression to stage 2 T1D: did not delay

## TEGVEALYLVCGGGS [Syn-G20]
[3]
  responses of the 9B9 (G20-specific) and IIT-3 (E21-specific) hybridomas: exclusively reacted to their corresponding epitopes

## insulin
[3]
  responses of the 9B9 (G20-specific) and IIT-3 (E21-specific) hybridomas: Only the IIT-3 but not the 9B9 T cell responded
[4]
  T cell responses upon recall in NOD.Ins2−/− mice: significantly enhanced
  T cell responses upon recall in WT NOD mice: minimal
[15]
  presentation of E21 and G20 by dispersed islets pulsed with antigen: only presentation of E21, but not G20, was enhanced
[16]
  presentation of E21 and G20 by mTECs pulsed with antigen: strong presentation of E21, whereas presentation of G20 was minimal

## ILSVHVATAASQDS [ZnT8]
[1]
  tetramer-binding cells per million CD4+ T cells: less than 5 per million CD4^+ T cells
